Assay results taken from patent US20140275094A1, “METHOD FOR TREATING PULMONARY ARTERIAL HYPERTENSION IN A PATIENT NOT HAVING IDIOPATHIC PULMONARY FIBROSIS” (GILEAD SCIENCES, INC., priority 2012, published 2014).

How the values were obtained:
[1] = target: T1, human bile salt export pump (BSEP) (Homo sapiens, UniProt O95342); experiment: Inhibition of hepatic transporter BSEP, Sf9 cell membrane vesicles; assay type: biochemical
T1 construct: expressed in transfected cells; host or cells: Sf9 cell membrane vesicles
T1 sequence (O95342 whole entry): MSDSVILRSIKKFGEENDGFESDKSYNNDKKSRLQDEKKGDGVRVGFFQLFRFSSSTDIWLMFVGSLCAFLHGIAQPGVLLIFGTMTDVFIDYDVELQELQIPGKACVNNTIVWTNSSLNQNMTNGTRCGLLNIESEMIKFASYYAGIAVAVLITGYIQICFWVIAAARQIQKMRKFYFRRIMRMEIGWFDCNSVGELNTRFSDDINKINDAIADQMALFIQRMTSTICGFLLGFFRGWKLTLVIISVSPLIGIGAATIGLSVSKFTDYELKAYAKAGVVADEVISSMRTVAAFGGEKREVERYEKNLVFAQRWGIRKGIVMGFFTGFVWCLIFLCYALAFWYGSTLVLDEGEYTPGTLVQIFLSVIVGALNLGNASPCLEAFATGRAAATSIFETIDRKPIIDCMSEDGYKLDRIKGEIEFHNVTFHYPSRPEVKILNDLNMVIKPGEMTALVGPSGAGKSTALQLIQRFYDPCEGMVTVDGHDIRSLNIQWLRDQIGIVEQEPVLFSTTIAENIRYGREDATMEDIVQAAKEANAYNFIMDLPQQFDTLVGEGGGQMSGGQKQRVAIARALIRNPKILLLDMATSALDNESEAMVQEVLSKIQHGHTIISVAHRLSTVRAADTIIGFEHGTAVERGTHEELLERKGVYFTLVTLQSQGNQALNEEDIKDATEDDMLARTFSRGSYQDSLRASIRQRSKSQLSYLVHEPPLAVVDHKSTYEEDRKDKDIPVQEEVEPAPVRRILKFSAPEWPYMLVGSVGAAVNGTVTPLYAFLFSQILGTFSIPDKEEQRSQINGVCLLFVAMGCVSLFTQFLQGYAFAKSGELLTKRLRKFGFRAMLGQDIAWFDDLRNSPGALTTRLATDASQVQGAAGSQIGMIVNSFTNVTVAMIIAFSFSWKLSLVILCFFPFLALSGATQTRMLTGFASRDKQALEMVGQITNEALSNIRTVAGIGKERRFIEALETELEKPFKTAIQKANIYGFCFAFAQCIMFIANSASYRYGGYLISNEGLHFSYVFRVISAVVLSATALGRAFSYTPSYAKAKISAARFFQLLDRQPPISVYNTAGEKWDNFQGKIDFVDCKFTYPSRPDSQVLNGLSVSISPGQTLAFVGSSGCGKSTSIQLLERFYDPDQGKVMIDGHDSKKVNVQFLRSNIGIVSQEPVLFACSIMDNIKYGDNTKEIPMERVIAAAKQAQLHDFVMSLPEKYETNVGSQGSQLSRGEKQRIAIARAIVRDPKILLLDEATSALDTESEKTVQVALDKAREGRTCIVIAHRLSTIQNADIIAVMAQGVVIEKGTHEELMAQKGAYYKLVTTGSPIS
Procedure: (§1) Inhibition constants (IC50) were measured for human bile salt export pump (BSEP), sodium taurocholate cotransporting polypeptide (NTCP), multidrug resistance protein 2 (MRP2), P-glycoprotein (Pgp), breast cancer resistance protein (BCRP), organic anion-transporting polypeptide 1B1 (OATP1B1), and OATP1B3 in transfected cell-lines. Known inhibitors were used as positive controls.

[2] = target: T2, sodium taurocholate cotransporting polypeptide (NTCP) (Homo sapiens, UniProt Q14973); experiment: Inhibition of hepatic transporter NTCP, transfected CHO cells; assay type: cell-based
T2 construct: expressed in transfected cells; host or cells: Chinese Hamster Ovary (CHO)
T2 sequence (Q14973 1-349): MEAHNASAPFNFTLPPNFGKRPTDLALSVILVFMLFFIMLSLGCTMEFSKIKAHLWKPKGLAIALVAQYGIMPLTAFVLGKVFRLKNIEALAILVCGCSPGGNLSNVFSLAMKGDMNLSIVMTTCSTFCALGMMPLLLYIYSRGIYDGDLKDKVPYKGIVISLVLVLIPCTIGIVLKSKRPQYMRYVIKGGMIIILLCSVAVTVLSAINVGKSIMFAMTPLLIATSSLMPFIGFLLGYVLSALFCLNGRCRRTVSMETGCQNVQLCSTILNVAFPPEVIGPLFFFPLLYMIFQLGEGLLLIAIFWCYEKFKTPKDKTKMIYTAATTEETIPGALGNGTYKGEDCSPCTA
Procedure: as §1

P-glycoprotein (Pgp) = target: T3, P-glycoprotein (Pgp) (Homo sapiens, UniProt P08183); experiment: Inhibition of Pgp, transfected MDCKII cells; assay type: cell-based
T3 construct: expressed in transfected cells; host or cells: Madin-Darby canine kidney strain II (MDCKII)
T3 sequence (P08183 whole entry): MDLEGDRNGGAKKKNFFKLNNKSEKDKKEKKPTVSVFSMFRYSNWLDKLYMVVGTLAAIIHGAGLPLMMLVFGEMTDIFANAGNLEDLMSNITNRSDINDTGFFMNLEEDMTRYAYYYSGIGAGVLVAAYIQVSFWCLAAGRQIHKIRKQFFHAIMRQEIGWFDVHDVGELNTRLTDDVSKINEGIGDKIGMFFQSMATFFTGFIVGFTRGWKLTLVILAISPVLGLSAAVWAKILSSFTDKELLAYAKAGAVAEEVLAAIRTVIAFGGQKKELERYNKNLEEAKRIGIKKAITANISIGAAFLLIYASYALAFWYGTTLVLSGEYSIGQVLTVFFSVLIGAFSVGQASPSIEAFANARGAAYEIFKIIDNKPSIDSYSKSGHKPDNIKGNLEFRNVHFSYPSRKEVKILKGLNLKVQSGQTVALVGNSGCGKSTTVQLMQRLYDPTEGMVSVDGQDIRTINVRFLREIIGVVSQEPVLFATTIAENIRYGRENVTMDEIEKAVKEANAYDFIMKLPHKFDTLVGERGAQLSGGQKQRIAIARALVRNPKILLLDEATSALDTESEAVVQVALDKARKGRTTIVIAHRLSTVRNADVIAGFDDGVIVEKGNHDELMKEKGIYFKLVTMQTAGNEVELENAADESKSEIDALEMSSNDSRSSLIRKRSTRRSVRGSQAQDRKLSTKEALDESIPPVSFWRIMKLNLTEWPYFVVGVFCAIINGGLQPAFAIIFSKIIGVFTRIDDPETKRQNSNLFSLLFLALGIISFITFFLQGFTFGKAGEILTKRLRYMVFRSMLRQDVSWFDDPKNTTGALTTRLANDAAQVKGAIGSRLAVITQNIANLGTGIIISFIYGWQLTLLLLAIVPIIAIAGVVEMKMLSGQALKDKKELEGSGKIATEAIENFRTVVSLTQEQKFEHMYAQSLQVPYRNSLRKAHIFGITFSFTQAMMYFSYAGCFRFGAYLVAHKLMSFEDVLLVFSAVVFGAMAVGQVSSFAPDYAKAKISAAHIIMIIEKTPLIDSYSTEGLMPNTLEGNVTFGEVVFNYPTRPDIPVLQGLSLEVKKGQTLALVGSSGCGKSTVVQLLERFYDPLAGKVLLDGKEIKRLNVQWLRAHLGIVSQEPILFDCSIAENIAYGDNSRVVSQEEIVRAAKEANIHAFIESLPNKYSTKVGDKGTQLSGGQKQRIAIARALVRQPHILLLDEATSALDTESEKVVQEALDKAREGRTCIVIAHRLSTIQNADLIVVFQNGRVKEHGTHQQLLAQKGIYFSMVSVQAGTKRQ
Procedure: as §1

[3] = target: T4, breast cancer resistance protein (BCRP) (Homo sapiens, UniProt Q9UNQ0); experiment: Inhibition of BCRP, transfected MDCKII cells; assay type: cell-based
T4 construct: expressed in transfected cells; host or cells: MDCKII
T4 sequence (Q9UNQ0 1-655): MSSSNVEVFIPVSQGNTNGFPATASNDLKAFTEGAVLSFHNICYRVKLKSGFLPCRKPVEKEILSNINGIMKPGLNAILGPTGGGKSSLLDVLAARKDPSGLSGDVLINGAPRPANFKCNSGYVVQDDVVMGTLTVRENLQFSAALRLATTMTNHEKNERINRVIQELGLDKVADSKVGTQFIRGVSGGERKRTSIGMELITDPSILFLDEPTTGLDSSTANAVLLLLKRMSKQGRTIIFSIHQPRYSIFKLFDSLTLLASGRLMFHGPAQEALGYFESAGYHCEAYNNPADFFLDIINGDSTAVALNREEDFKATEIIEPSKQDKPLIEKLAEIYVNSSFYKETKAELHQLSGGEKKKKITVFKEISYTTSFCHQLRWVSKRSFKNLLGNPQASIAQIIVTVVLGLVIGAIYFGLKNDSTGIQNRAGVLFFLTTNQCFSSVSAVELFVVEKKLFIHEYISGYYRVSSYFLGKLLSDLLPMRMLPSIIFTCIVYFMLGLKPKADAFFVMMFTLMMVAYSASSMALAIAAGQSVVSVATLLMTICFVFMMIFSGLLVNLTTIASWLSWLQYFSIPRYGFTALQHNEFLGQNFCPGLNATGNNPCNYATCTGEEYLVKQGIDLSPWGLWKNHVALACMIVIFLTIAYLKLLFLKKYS
Procedure: as §1

[4] = target: T5, organic anion-transporting polypeptide 1B1 (OATP1B1) (Homo sapiens, UniProt Q9Y6L6); experiment: Inhibition of OATP1B1, transfected CHO cells; assay type: cell-based
T5 construct: expressed in transfected cells; host or cells: CHO
T5 sequence (Q9Y6L6 1-691): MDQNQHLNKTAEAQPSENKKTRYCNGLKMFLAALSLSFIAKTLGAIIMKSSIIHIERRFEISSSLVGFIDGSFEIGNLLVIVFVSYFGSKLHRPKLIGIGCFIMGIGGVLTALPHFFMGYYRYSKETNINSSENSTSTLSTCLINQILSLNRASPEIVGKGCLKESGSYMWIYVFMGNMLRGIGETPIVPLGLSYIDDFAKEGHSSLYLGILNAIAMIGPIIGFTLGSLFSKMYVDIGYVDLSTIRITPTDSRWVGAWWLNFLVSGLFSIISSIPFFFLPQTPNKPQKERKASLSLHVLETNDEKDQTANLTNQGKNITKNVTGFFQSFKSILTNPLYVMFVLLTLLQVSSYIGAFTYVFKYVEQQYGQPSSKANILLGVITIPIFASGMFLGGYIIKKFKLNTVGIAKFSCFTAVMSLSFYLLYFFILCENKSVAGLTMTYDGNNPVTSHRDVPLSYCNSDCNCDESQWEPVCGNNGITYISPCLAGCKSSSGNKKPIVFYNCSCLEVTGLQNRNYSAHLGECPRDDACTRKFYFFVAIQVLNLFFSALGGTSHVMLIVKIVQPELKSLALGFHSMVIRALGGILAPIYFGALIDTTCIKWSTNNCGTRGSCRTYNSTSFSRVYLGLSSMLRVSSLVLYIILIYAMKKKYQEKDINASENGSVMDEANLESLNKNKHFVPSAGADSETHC
Procedure: as §1

OATP1B3 = target: T6, OATP1B3 (Homo sapiens, UniProt Q9NPD5); experiment: Inhibition of OATP1B3, transfected CHO cells; assay type: cell-based; conditions: OAT1B3
T6 construct: expressed in transfected cells; host or cells: CHO
T6 sequence (Q9NPD5 1-702): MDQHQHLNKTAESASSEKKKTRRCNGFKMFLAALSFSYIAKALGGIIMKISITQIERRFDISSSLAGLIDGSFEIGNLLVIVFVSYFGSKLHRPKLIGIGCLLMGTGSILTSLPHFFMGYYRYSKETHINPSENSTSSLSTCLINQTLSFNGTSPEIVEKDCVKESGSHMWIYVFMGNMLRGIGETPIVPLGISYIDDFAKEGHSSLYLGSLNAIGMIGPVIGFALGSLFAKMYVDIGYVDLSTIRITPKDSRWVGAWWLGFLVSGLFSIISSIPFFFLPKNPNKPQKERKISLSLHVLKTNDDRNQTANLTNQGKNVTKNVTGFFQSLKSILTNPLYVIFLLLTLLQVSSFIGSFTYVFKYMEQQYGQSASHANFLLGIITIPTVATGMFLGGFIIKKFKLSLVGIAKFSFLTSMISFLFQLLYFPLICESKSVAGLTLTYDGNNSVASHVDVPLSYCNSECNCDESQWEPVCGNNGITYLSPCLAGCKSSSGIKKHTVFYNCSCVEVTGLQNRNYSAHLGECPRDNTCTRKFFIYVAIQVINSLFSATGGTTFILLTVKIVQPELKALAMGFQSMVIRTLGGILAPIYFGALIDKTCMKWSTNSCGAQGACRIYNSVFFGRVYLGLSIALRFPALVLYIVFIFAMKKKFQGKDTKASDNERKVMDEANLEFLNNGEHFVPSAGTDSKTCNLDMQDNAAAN
Procedure: as §1

human hepatocytes = conditions: cited from earlier work

Row | SMILES | effect on BSEP [1] | IC50 ([1]; BSEP) [µM] | effect on NTCP [2] | IC50 ([2]; NTCP) [µM] | IC50 (P-glycoprotein (Pgp)) [µM] | IC50 [3] [µM] | IC50 [4] [nM] | IC50 (OATP1B3) [nM] | effect on hepatobiliary transporter activity (human hepatocytes)
1 | CCCNS(=O)(=O)Nc1ncnc(OCCOc2ncc(Br)cn2)c1-c1ccc(Br)cc1 [Macitentan, N-[5-(4-bromophenyl)-6-(2-(5-bromopyrimidin-2-yloxy)ethoxy)-pyrimidin-4-yl]-N′-propylaminosulfonamide] | inhibition was observed | 12 | inhibition was observed | 8 | 64 ± 15 | 75 ± 37 | 2000 ± 300 | 2100 ± 300 | 
2 | COc1cc(OC)nc(O[C@H](C(=O)O)C(OC)(c2ccccc2)c2ccccc2)n1 [darusentan] |  |  |  |  |  |  |  |  | less potent
3 | Cc1cc2c(cc1CC(=O)c1sccc1S(=O)(=O)Nc1onc(C)c1Cl)OCO2 [sitaxsentan] |  |  |  |  |  |  |  |  | decreased transporter activity to the greatest extent
